Experimental data: US12655116B2, “Substituted isophthalic acid diamides” (Bayer Aktiengesellschaft, priority 2020, dated 2026)

How the values were obtained:
[1] = system: ABUTH; test: Pre-emergence herbicidal action against ABUTH; assay type: in vivo, Abutilon theophrasti; conditions: Abutilon theophrasti, 504 h, 80 g/ha, scored visually after 3 weeks vs untreated controls (100% = plants have died, 0% = like control plants)
How it was run: (§1)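 Visual rating at 3 weeks vs untreated pots; 0–100% scale, 100% = plants died. Treatment: aqueous WP/EC spray onto covering soil, 600–800 l/ha, 0.2% wetter, seeds in sandy loam.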

[2] = system: ALOMY; test: Pre-emergence herbicidal action against ALOMY; assay type: in vivo, Alopecurus myosuroides; conditions: Alopecurus myosuroides, 504 h; 80 g/ha, pre-emergence, scored visually after 3 weeks vs untreated controls (100% = plants have died, 0% = like control plants)
How it was run: as §1

[3] = system: AMARE; test: Pre-emergence herbicidal action against AMARE; assay type: in vivo, Amaranthus retroflexus; conditions: Amaranthus retroflexus, 504 h, scored visually after 3 weeks vs untreated controls, 100% = plants have died, 0% = like control plants
How it was run: as §1

[4] = system: AVEFA; test: Pre-emergence herbicidal action against AVEFA; assay type: in vivo, Avena fatua; conditions: Avena fatua, 504 h, pre-emergence
How it was run: as §1

[5] = system: ECHCG; test: Pre-emergence herbicidal action against ECHCG; assay type: in vivo, Echinochloa crus-galli; conditions: Echinochloa crus-galli, 504 h, 80 g/ha
How it was run: as §1

[6] = system: MATIN; test: Pre-emergence herbicidal action against MATIN; assay type: in vivo, Matricaria inodora; conditions: Tripleurospermum inodorum, 504 h; for pest or weed control at 20 g/ha: dosage 20 g/ha; for pest or weed control at 80 g/ha: dosage 80 g/ha
How it was run: as §1

[7] = system: SETVI; test: Pre-emergence herbicidal action against SETVI; assay type: in vivo, Setaria viridis; conditions: Setaria viridis, 504 h, dosage 80 g/ha
How it was run: as §1

[8] = system: VIOTR; test: Pre-emergence herbicidal action against VIOTR; assay type: in vivo, Viola tricolor; conditions: Viola tricolor, 504 h; for pest or weed control at 80 g/ha: dosage 80 g/ha
How it was run: as §1

[9] = system: DIGSA; test: Pre-emergence herbicidal action against DIGSA; assay type: in vivo, Digitaria sanguinalis; conditions: Digitaria sanguinalis, 504 h; for pest or weed control at 80 g/ha: dosage 80 g/ha
How it was run: as §1

[10] = system: ABUTH; test: Post-emergence herbicidal action against ABUTH; assay type: in vivo, Abutilon theophrasti; conditions: Abutilon theophrasti, 504 h, dosage 20 g/ha, visual assessment about 3 weeks after treatment vs untreated controls
How it was run: (§2)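 Greenhouse pot plants in sandy loam were sprayed at the one-leaf stage, 2 to 3 weeks after sowing, with WP or EC formulations as aqueous suspension or emulsion (600 to 800 l/ha water, 0.2% wetting agent). About 3 weeks later, damage was scored visually against untreated controls as % action (100% = dead, 0% = like control).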

[11] = system: AVEFA; test: Post-emergence herbicidal action against AVEFA; assay type: in vivo, Avena fatua; conditions: Avena fatua, 504 h, visual assessment about 3 weeks after treatment, 100% = plants have died, 0% = like control plants
Procedure: Seeds of monocotyledonous and dicotyledonous weed and crop plants are laid out in sandy loam soil in wood-fiber pots, covered with soil and cultivated in a greenhouse under good growth conditions. 2 to 3 weeks after sowing, the test plants are treated at the one-leaf stage. The compounds of the invention, formulated in the form of wettable powders (WP) or as emulsion concentrates (EC), are then sprayed onto the green parts of the plants in the form of an aqueous suspension or emulsion at a water application rate equivalent to 600 to 800 l/ha, with addition of 0.2% wetting agent. After the test plants have been left to stand in the greenhouse under optimal growth conditions for about 3 weeks, the action of the preparations is assessed visually in comparison to untreated controls (herbicidal action in percent (%): 100% activity=the plants have died, 0% activity=like control plants). […] The tables below illustrate, in an illustrative manner, the post-emergence herbicidal action of the compounds of the invention, the herbicidal activity being stated in percent.

[12] = system: ECHCG; test: Post-emergence herbicidal action against ECHCG; assay type: in vivo, Echinochloa crus-galli; conditions: Echinochloa crus-galli, 504 h, dosage 20 g/ha
How it was run: as §2

[13] = system: SETVI; test: Post-emergence herbicidal action against SETVI; assay type: in vivo, Setaria viridis; conditions: Setaria viridis, 504 h, dosage 20 g/ha
How it was run: as §2

[14] = system: STEME; test: Pre-emergence herbicidal action against STEME; assay type: in vivo, Stellaria media; conditions: Stellaria media, 504 h, dosage 80 g/ha
Source text: Seeds of monocotyledonous and dicotyledonous weed plants and crop plants are laid out in sandy loam soil in wood-fiber pots and covered with soil. The compounds of the invention, formulated in the form of wettable powders (WP) or as emulsion concentrates (EC), are then applied to the surface of the covering soil in the form of an aqueous suspension or emulsion at a water application rate equivalent to 600 to 800 l/ha, with addition of 0.2% wetting agent. After the treatment, the pots are placed in a greenhouse and kept under good growth conditions for the trial plants. The damage to the test plants is scored visually after a test period of 3 weeks by comparison with untreated controls (herbicidal activity in percent (%): 100% activity=the plants have died, 0% activity=like control plants). […] The tables below illustrate, in an illustrative manner, the post-emergence herbicidal action of the compounds of the invention, the herbicidal activity being stated in percent.

[15] = system: AMARE; test: Post-emergence herbicidal action against AMARE; assay type: in vivo, Amaranthus retroflexus; conditions: Amaranthus retroflexus, 504 h, 20 g/ha, visual assessment about 3 weeks after treatment, 100% = plants have died, 0% = like control plants
How it was run: as §2

[16] = system: VIOTR; test: Post-emergence herbicidal action against VIOTR; assay type: in vivo, Viola tricolor; conditions: Viola tricolor, 504 h
How it was run: as §2

[17] = system: POLCO; test: Pre-emergence herbicidal action against POLCO; assay type: in vivo, Polygonum convolvulus; conditions: Fallopia convolvulus, 504 h
How it was run: as §1

[18] = system: VERPE; test: Pre-emergence herbicidal action against VERPE; assay type: in vivo, Veronica persica; conditions: Veronica persica, 504 h
How it was run: as §1

SMILES | pest or weed control at 80 g/ha [1] [%] | pest or weed control at 20 g/ha [3] [%] | pest or weed control at 80 g/ha [3] [%] | pest or weed control at 20 g/ha [6] [%] | pest or weed control at 80 g/ha [6] [%] | pest or weed control at 80 g/ha [8] [%] | pest or weed control at 80 g/ha [9] [%] | pest or weed control at 20 g/ha [10] [%] | pest or weed control at 80 g/ha [14] [%] | pest or weed control at 20 g/ha [15] [%] | pest or weed control at 20 g/ha [16] [%] | also measured
Cc1c(C(=O)Nc2nnnn2C)ccc(C(F)(F)F)c1C(=O)NCC(F)(F)F [Example 1-29] | 100 | 100 | 100 | 100 | 100 | 100 | 100 | 80 | – | – | – | pest or weed control at 80 g/ha [2]: 100%; pest or weed control at 80 g/ha ([4]; 80 g/ha): 90%; pest or weed control at 20 g/ha ([4]; 20 g/ha, scored visually after 3 weeks, 100% = plants have died, 0% = like control plants): 80%; pest or weed control at 80 g/ha [5]: 90%; pest or weed control at 80 g/ha [7]: 100%; pest or weed control at 20 g/ha ([8]; dosage 20 g/ha): 100%; pest or weed control at 20 g/ha ([9]; dosage 20 g/ha): 100%; pest or weed control at 5 g/ha ([11]; 5 g/ha): 80%; pest or weed control at 20 g/ha ([11]; 20 g/ha): 90%; pest or weed control at 20 g/ha [12]: 80%; pest or weed control at 20 g/ha [13]: 80%
CNC(=O)c1c(S(C)(=O)=O)ccc(C(=O)Nc2nnnn2C)c1Cl [Example 1-123] | 100 | 80 | 100 | 80 | 100 | 80 | 90 | 80 | 90 | 80 | 100 | –
Cn1nnnc1NC(=O)c1ccc(S(C)(=O)=O)c(C(=O)NC2CC2)c1Cl [Example 1-125] | – | 90 | 100 | 80 | 100 | 100 | 90 | – | 100 | 80 | 100 | pest or weed control at 20 g/ha ([17]; dosage 20 g/ha): 80%; pest or weed control at 80 g/ha ([17]; dosage 80 g/ha): 80%; pest or weed control at 20 g/ha ([18]; dosage 20 g/ha): 80%; pest or weed control at 80 g/ha ([18]; dosage 80 g/ha): 80%; pest or weed control at 5 g/ha ([16]; 5 g/ha): 100%
